Counter-ions that a name gives are not always drawn.
System: Acinetobacter baumannii ATCC17961
Experiment: Antimicrobial susceptibility testing: 90% growth inhibitory concentration (IC90) determination
Format: cell-based
Details: Acinetobacter baumannii, ATCC17961, 16 h, 90% growth inhibitory concentration; Iso-Sensitest broth, optical density at 600 nm over 16h, 35±2° C.; read-out: AB ATCC 17961 IC90
Method: Antimicrobial Susceptibility Testing:
90% Growth Inhibitory Concentration (IC90) Determination
The in vitro antimicrobial activity of the compounds was determined according to the following procedure:
The assay used a 10-points Iso-Sensitest broth medium to measure quantitatively the in vitro activity of the compounds against Acinetobacter baumannii ATCC17961 or ATCC17978.
Stock compounds in DMSO were serially twofold diluted (e.g. range from 50 to 0.097 μM final concentration) in 384 wells microtiter plates and inoculated with 49 μl the bacterial suspension in Iso-Sensitest medium to have a final cell concentration of ˜5×10^(5) CFU/ml in a final volume/well of 50 ul/well. Microtiter plates were incubated at 35±2° C.
Bacterial cell growth was determined with the measurement of optical density at λ=600 nm each 20 minutes over a time course of 16h. Growth inhibition was calculated during the logarithmic growth of the bacterial cells with determination of the concentration inhibiting 50% (IC50) and 90% (IC90) of the growth.
Table 2 provides the 90% growth inhibitory concentrations (IC90) in micromoles per liter of the compounds of present invention obtained against the strain Acinetobacter baumannii ATCC17961.

Row | Structure (SMILES) | IC90 [µM]
1 | COc1ccc(-c2cnc3c(Nc4ccc(S(=O)(=O)NCCOCCN)c(Cl)c4)nccn23)c(F)c1F [Example 101, N-(2-(2-aminoethoxy)ethyl)-2-chloro-4-((3-(2,3-difluoro-4-methoxyphenyl)imidazo[1,2-a]pyrazin-8-yl)amino) benzenesulfonamide hydrochloride] | 0.078
2 | CCc1cc(Nc2nccn3c(-c4ccc(OC)c(F)c4F)cnc23)ccc1S(=O)(=O)N1CCNCC1 [Example 103, 3-(2,3-difluoro-4-methoxyphenyl)-N-(3-ethyl-4-(piperazin-1-ylsulfonyl)phenyl) imidazo[1,2-a]pyrazin-8-amine hydrochloride] | 0.5
3 | CCc1cc(Nc2nccn3c(-c4ccc(OC)c(F)c4F)cnc23)ccc1S(=O)(=O)N1CCN(C(=O)CN(C)C)CC1 [Example 104, 1-(4-((4-((3-(2,3-difluoro-4-methoxyphenyl)imidazo[1,2-a]pyrazin-8-yl)amino)-2-ethylphenyl)sulfonyl)piperazin-1-yl)-2-(dimethylamino)ethan-1-one] | 0.34
4 | CCc1cc(Nc2nccn3c(-c4ccc(OC)c(F)c4F)cnc23)ccc1S(=O)(=O)N1CCN(C(=O)[C@@H]2CCCN2)CC1 [Example 105, (S)(4-(4-((3-(2,3-difluoro-4-methoyphenyl)imidazo[1,2-a]pyrazin-8-yl)amino)-2-ethylphenyl)sulfonyl)piperazin-1-yl)(pyrrolidin-2-yl)methanone hydrochloride] | 0.31
5 | CCc1cc(Nc2nccn3c(-c4ccc(OC)c(F)c4F)cnc23)ccc1S(=O)(=O)N1CCN(C(=O)[C@@H]2C[C@@H](O)CN2)CC1 [Example 106, (4-((4-((3-(2,3-difluoro-4-methoxyphenyl)imidazo [1,2-a]pyrazin-8-yl)amino)-2-ethylphenyl)sulfonyl)piperazin-1-yl)((2S,4R)-4-hydroxypyrrolidin-2-yl)methanone hydrochloride] | 0.25
6 | CCc1cc(Nc2nccn3c(-c4ccc(OC)c(F)c4F)cnc23)ccc1S(=O)(=O)N1CCN(C(=O)[C@@H]2CCNC2)CC1 [Example 107, (R)-(4-(4-((3-(2,3-difluoro-4-methoxyphenyl)imidazo[1,2-a]pyrazin-8-yl)amino)-2-ethylphenyl)sulfonyl) piperazin-1-yl)(pyrrolidin-3-yl)methanone hydrochloride] | 0.2
7 | CCc1cc(Nc2nccn3c(-c4ccc(OC)c(F)c4F)cnc23)ccc1S(=O)(=O)N1CCN(C(=O)C2CCNCC2)CC1 [Example 108, (4-((4-((3-(2,3-difluoro-4-methoxyphenyl)imidazo[1,2-a]pyrazin-8-ylamino)-2-ethylphenyl)sulfonyl)piperazin-1-yl)(piperidin-4-yl)methanone hydrochloride] | 0.22
8 | CCc1cc(Nc2nccn3c(-c4ccc(OC)c(F)c4F)cnc23)ccc1S(=O)(=O)N1CCN(C(=O)C2(O)CCNCC2)CC1 [Example 109, (4-((4-((3-(2,3-difluoro-4-methoxyphenyl)imidazo [1,2-alpyrazin-8-yl)amino)-2-ethylphenyl)sulfonyl)piperazin-1-yl)(4-hydroxypiperidin-4-yl)methanonbydrochloride] | 0.64
9 | CCc1cc(Nc2nccn3c(-c4ccc(OC)c(F)c4F)cnc23)ccc1S(=O)(=O)N1CCN(C(=O)C[N+](C)(C)C)CC1 [Example 110, 2-(4-((4-((3-(2,3-difluoro-4-methoxyphenyl)imidazo[1,2-a]pyrazin-8-yl)amino)-2-ethylphenyl)sulfonyl)piperazin-1-yl)-N,N,N-trimethyl-2-oxoethan-1-aminium iodide] | 0.33
10 | CCc1cc(Nc2nccn3c(-c4ccc(OC)c(F)c4F)cnc23)ccc1S(=O)(=O)N1CCN(C(=O)[C@@H]2CCN(C(=O)[C@@H]3C[C@@H](O)CN3)C2)CC1 [Example 111, (4-((4-((3-(2,3-difluoro-4-methoxyphenyl)imidazo[1,2-a]pyrazin-s-yl)amino)-2-ethylphenyl)sulfonyl)piperazin-1-yl)((R)-1-((2S,4R)-4-hydroxypyrrolidine-2-carbonyl)pyrrolidin-3-yl)methanone hydrochloride] | 0.87
11 | COc1ccc(-c2cnc3c(Nc4ccc(N5CCC(CN)CC5)c(C)c4)nccn23)c(F)c1F [Example 113, N-(4-(4-(aminomethyl)piperidin-1-yl)-3-methylphenyl)-3-(2,3-difluoro-4-methoxyphenyl) imidazo [1,2-a]pyrazin-8-amine hydrochloride] | 0.37

More lines, now with the values ahead:

Row | IC90 [µM] | Structure (SMILES)
12 | 0.81 | CCc1cc(Nc2nccn3c(-c4ccc(OC)c(F)c4F)cnc23)ccc1N1CCC(CN)CC1 [Example 114, N-(4-(4-(aminomethyl)piperidin-1-yl)-3-ethylphenyl)-3-(2,3-difluoro-4-methoxyphenyl) imidazo [1,2-a]pyrazin-8-amine hydrochloride]
13 | 0.49 | COc1ccc(-c2cnc3c(Nc4ccc(N5CCC(CN)CC5)c(Cl)c4)nccn23)c(F)c1F [Example 115, N-(4-(4-(aminomethyl)piperidin-1-yl)-3-chlorophenyl)-3-(2,3-difluoro-4-methoxyphenyl) imidazo [1,2-a]pyrazin-8-amine hydrochloride]
14 | 0.22 | COc1ccc(-c2cnc3c(Nc4ccc(S(=O)(=O)C[C@H]5CC[C@H](N)CC5)c(Cl)c4)nccn23)c(F)c1F [Example 116, rac-N-(4-((((lr,4r)-4-aminocyclohexyl)methyl)sulfonyl)-3-chlorophenyl)-3-(2,3-difluoro-4-methoxyphenyl)imidazol[1,2-a]pyrazin-8-amine]
15 | 0.12 | COc1ccc(-c2cnc3c(Nc4ccc(Cn5ccnc5)c(C)c4)nccn23)c(F)c1F [Example 118, 3-(2,3-difluoro-4-methoxy-phenyl)-N-[4-(imidazol-1-ylmethyl)-3-methyl-phenyl]imidazo[1,2-a]pyrazin-8-amine]
16 | 0.65 | Cc1cc(Nc2nccn3c(-c4ccc(Oc5ccccn5)c(F)c4F)cnc23)ccc1OCCOCCOCCN [Example 122, N-(4-(2-(2-(2-aminoethoxy)ethoxy)ethoxy)-3-methylphenyl)-3-(2,3-difluoro-4-(pyridin-2-yloxy)phenyl)imidazo[1,2-a]pyrazin-8-amine]
17 | 0.58 | CCc1cc(Nc2nccn3c(-c4ccc(OC)c(F)c4F)cnc23)ccc1C[N+](C)(C)C [Example 123, [4-[[3-(2,3-difluoro-4-methoxy-phenyl)imidazo[1,2-a]pyrazin-8-yl]amino]-2-ethyl-phenyl]methyl-trimethyl-ammonium]
18 | 0.36 | COc1ccc(-c2cnc3c(Nc4ccc5c(c4)CCC5=O)nccn23)c(F)c1F [Example 125, 5-[[3-(2,3-difluoro-4-methoxy-phenyl)imidazo[1,2-a]pyrazin-8-yl]amino]indan-1-one]

Same assay, conditions: Acinetobacter baumannii, ATCC17961, 16 h, read-out: AB ATCC 17961 IC90 (uM)

Row | Structure (SMILES) | IC90 [µM]
19 | COc1ccc(-c2cnc3c(Nc4ccc(S(=O)(=O)NCCOCCN)cc4)nccn23)c(F)c1F [Example 102, N-(2-(2-aminoethoxy)ethyl)-4-(3-(2,3-difluoro-4-methoxyphenyl)imidazo [1,2-a]pyrazin-8-yl)amino) benzenesulfonamide hydrochloride] | 0.39
20 | COc1ccc(-c2cnc3c(Nc4ccc(N5CCC(CN)CC5)cc4)nccn23)c(F)c1F [Example 112, N-(4-(4-(aminomethyl)piperidin-1-yl)phenyl)-3-(2,3-difluoro-4-methoxyphenyl)imidazo[1,2-a]pyrazin-8-amine hydrochloride] | 0.56

Source: patent publication US20230141403A1 (Hoffmann-La Roche Inc., priority 2020, published 2023)
